The values that follow come from patent US9795139B2, “Molecules having pesticidal utility, and intermediates, compositions, and processes, related thereto” (priority 2015, dated 2017).

Assay type in all cases: in vivo
For series [1], the system named is Beet Armyworm (Spodoptera exigua, LAPHEG). Description: Bioassay on Beet Armyworm (BAW), 128-well diet tray assay. To be noted: 168 h, 50 μg/cm^2 on artificial diet, second instar larvae, 25° C., five to seven days, average of eight wells, read-out: BAW % Control (or Mortality) rating. The gist of the method: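 Diet in each of eight wells received 50 μg/cm^2 of test molecule (90:10 acetone-water, dried), then one to five second-instar larvae were added. Mortality (%) was scored after five to seven days at 25° C. under 14:10 light-dark and averaged across the wells.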

Series [2] relates to Yellow Fever Mosquito (Aedes aegypti, AEDSAE). The following applies: about 1 day-old larvae, 96-well plate from 4000 ppm DMSO master, 3 days at room temperature. An outline of the steps: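 Each well was scored for mortality after 3 days at room temperature under a non-evaporative lid. Test molecules came from DMSO masters (4000 ppm stock) diluted with water/acetone 90:10 and dispensed into six replicate plates, which were then infested with roughly 1-day-old larvae in liver-powder water.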

Series [3] deals with Cabbage Looper (Trichoplusia ni, TRIPNI). Description: Bioassay on Cabbage Looper (CL), 128-well diet tray assay. The following applies: 168 h, 50 μg/cm^2 on artificial diet, second instar larvae, 25° C., five to seven days, average of eight wells, read-out: CL % Control (or Mortality) rating. An outline of the steps:
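Mortality of second instar larvae exposed to diet coated with 50 μg/cm^2 compound (acetone-water 90:10 vehicle, dried); 25° C., 5–7 days.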

In series [4] the test system is Green Peach Aphid (Myzus persicae, MYZUPE). Description: Bioassay on Green Peach Aphid (GPA), foliar spray on cabbage seedlings. To be noted: 72 h, 200 ppm foliar spray on cabbage seedlings, three days, Abbott corrected % control, read-out: GPA % Control (or Mortality) rating. How it is done: Certain molecules disclosed in this document were tested against GPA using procedures described in the following example. In the reporting of the results, the “GPA & YFM Rating Table” was used (See Table Section).
Cabbage seedlings grown in 3-inch pots, with 2-3 small (3-5 cm) true leaves, were used as test substrate. The seedlings were infested with 20-50 GPA (wingless adult and nymph stages) one day prior to chemical application. Four pots with individual seedlings were used for each treatment. Test molecules (2 mg) were dissolved in 2 mL of acetone/methanol (1:1) solvent, forming stock solutions of 1000 ppm test molecule.
The stock solutions were diluted 5× with 0.025% Tween 20 in water to obtain the solution at 200 ppm test molecule. A hand-held aspirator-type sprayer was used for spraying a solution to both sides of […] leaves until runoff. Reference plants (solvent check) were sprayed with the diluent only containing 20% by volume of acetone/methanol (1:1) solvent. Treated plants were held in a holding room for three days at approximately 25° C. and ambient relative humidity (RH) prior to grading. Evaluation was conducted by counting the number of live aphids per plant under a microscope. Percent control was measured using Abbott's correction formula (W. S. Abbott, “A Method of Computing the Effectiveness of an Insecticide” J. Econ. Entomol. 18 (1925), pp. 265-267) as follows. Corrected % Control=100*(X−Y)/X where X=No. of live aphids on solvent check plants and Y=No. of live aphids on treated plants. The results are indicated in the table entitled “Table ABC: Biological Results” (See Table Section).

As a reminder, the mortality is the percentage killed. Regarding `O=C(NC1CC(F)(F)C1)c1cc(NC(=O)[C@H]2[C@H](c3cc(Cl)cc(Br)c3)C2(Cl)Cl)ccc1Cl` (relative stereo) [PF8, trans-5-(3-(3-Bromo-5-chlorophenyl)-2,2-dichlorocyclopropane-1-carboxamido)-2-chloro-N-(3,3-difluorocyclobutyl)benzamide], the mortality at 50 µg/cm2 in series [1] and in series [3] was 50 to 100% in each case. Also, the “YFM % Control (or Mortality) rating” value in series [2] is “D (No activity noticed in this bioassay)”. The mortality at 200 ppm in series [4] is 80 to 100%.
For the compound `N#CC1(NC(=O)c2cc(NC(=O)C3C(c4ccc(Cl)c(Cl)c4)C3(Cl)Cl)ccc2Cl)CCC1` (stereo not drawn) [Molecule F14, trans-2-Chloro-N-(l-cyanocyclobutyl)-5-(2,2-dichloro-3-(3,4-dichlorophenyl)cyclopropanecarboxamido)benzamide], the mortality at 50 µg/cm2 in series [1] and in series [3] was 50 to 100% throughout. The “YFM % Control (or Mortality) rating” value in series [2] was “A (80-100)”. Besides, in series [4], the mortality at 200 ppm lay in the range of 0 to 80%.
